How the values were obtained:
Assay type in all cases: biochemical
[1] = target: T1, mitochondrial uncoupling protein 1 (UCP1) (Mus musculus, UniProt P12242); assay: planar lipid bilayer conductance, competition of […] ATP with […] genipin
T1 construct: recombinant mouse UCP1 from E. coli inclusion bodies, reconstituted in lipid bilayers
T1 sequence (P12242 1-307): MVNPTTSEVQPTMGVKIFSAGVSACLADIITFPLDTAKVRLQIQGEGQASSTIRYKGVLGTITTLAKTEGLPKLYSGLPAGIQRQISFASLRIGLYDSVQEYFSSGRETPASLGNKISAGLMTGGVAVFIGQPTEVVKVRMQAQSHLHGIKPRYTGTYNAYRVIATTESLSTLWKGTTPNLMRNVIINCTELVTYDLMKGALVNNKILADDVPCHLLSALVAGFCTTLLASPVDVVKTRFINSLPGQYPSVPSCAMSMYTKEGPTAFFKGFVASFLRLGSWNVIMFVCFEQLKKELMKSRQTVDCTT
Text: The first bar is the inhibition after the addition of ATP

[2] = target: T2, mitochondrial uncoupling protein 3 (UCP3) (Mus musculus, UniProt P56501); assay: planar lipid bilayer conductance with reconstituted UCP3
T2 construct: recombinant mouse UCP3 from E. coli inclusion bodies, reconstituted in lipid bilayers
T2 sequence (P56501 1-308): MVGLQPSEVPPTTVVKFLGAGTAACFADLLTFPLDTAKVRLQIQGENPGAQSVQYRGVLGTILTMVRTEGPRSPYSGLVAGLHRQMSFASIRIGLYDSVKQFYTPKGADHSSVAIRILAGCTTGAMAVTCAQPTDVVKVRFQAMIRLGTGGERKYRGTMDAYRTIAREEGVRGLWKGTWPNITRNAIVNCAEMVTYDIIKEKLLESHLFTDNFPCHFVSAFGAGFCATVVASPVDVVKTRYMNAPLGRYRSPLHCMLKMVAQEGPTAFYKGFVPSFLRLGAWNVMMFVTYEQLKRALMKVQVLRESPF

[3] = target: T3, mitochondrial uncoupling protein 2 (UCP2) (Mus musculus, UniProt P70406); assay: planar lipid bilayer conductance with reconstituted UCP2
T3 construct: recombinant mouse UCP2 from E. coli inclusion bodies, reconstituted in lipid bilayers
T3 sequence (P70406 1-309): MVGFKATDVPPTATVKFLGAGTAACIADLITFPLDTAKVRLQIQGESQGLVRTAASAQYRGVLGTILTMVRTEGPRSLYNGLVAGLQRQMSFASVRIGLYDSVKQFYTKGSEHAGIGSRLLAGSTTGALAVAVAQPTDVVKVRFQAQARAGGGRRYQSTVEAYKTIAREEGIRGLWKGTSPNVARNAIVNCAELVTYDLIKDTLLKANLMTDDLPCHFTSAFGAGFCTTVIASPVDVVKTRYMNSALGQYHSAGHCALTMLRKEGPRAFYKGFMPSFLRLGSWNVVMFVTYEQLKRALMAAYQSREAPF

[4] = target: T4, mitochondrial complex III (CIII) (Bos taurus, UniProt P00157); assay: cytochrome c reduction by isolated complex III, […] genipin
T4 construct: gene MT-CYB; complex III isolated from bovine heart

[5] = target: T1, mitochondrial uncoupling protein 1 (UCP1); assay: planar lipid bilayer conductance with reconstituted UCP1; LC-MS/MS of covalent adducts; arginine mutants; competition with ATP
[6] = target: T1, mitochondrial uncoupling protein 1 (UCP1); assay: planar lipid bilayer conductance with reconstituted UCP1

## Nc1ncnc2c1ncn2[C@@H]1O[C@H](COP(=O)(O)OP(=O)(O)OP(=O)(O)O)[C@@H](O)[C@H]1O [ATP]
[1]
  planar lipid bilayer conductance, competition of 3 mM ATP with 50 μM genipin: Competitive inhibition of UCP1 with genipin (GNP) and ATP. The first bar is the inhibition after the addition of ATP

## COC(=O)C1=CO[C@@H](O)[C@@H]2C(CO)=CC[C@H]12 [GNP, genipin]
[2]
  IC50: 41 ± 12 µM
[3]
  IC50: 94 ± 24 µM
[4]
  activity at 50 µM: 63 ± 7%
[5]
  IC50: 133 ± 12 µM

## COC(=O)C1=CO[C@@H](O[C@@H]2O[C@H](CO)[C@@H](O)[C@H](O)[C@H]2O)[C@@H]2C(CO)=CC[C@H]12 [geniposide]
[6]
  EC50: 693 ± 90 µM

From publication PMC7031773, “Molecular Mechanisms Responsible for Pharmacological Effects of Genipin on Mitochondrial Proteins” (Biophysical Journal, 2019)
